# Measured values taken from PMC7056829, “Reversal Effect of ALK Inhibitor NVP-TAE684 on ABCG2-Overexpressing Cancer Cells” (Frontiers in Oncology, 2020).
# Columns and labels:
# ABCG2 [1] = biological target: T1, ABCG2 (Homo sapiens, UniProt Q9UNQ0)
# T1 sequence (Q9UNQ0 1-655): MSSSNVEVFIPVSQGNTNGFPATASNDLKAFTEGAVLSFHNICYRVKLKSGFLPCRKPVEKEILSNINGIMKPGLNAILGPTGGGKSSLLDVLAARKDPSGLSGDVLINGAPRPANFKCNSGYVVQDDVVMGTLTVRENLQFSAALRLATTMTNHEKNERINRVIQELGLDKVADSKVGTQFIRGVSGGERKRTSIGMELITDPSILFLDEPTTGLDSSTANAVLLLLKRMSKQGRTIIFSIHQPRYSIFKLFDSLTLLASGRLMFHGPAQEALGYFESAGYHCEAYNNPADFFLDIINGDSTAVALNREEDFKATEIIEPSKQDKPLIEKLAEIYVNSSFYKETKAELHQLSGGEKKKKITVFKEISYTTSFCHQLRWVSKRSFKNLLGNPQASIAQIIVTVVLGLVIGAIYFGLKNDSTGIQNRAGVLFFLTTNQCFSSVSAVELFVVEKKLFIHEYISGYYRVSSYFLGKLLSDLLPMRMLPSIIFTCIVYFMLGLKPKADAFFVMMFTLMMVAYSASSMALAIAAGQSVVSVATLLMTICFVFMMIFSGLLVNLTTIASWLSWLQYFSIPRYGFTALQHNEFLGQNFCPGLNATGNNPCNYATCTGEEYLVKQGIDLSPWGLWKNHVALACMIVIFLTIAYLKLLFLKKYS
# ABCG2 [2] = biological target: T1, ABCG2; assay: ATPase stimulation in ABCG2-overexpressing membrane vesicles; assay type: biochemical; set-up: ABCG2 membrane vesicles that overexpressed ABCG2
structure (smiles),measurement,setting,value
O=C1c2c(O)ccc(O)c2C(=O)c2c(NCCNCCO)ccc(NCCNCCO)c21 [Mitoxantrone],[3H]-mitoxantrone accumulation and efflux in NCI-H460/MX20 versus parental NCI-H,ABCG2 [1],NVP-TAE684 significantly reduced the extrusion of [^3H]-mitoxantrone in NCI-H460/MX20 cells
COc1cc(N2CCC(N3CCN(C)CC3)CC2)ccc1Nc1ncc(Cl)c(Nc2ccccc2S(=O)(=O)C(C)C)n1 [NVP-TAE684],EC50,ABCG2 [2],91 nM
